Reference: US8063064B2, “Non-nucleoside reverse transcriptase inhibitors” (Roche Palo Alto LLC, priority 2006, dated 2011)
Structures can show the parent of a compound that is named as a salt.

Experiments:
HIV-1 RT [1] = molecular target: T1, HIV-1 RT (Human immunodeficiency virus type 1 group M subtype B, UniProt P03366); assay: Homopolymer HIV Reverse Transcriptase Assay: Inhibitor IC50 Determination; assay type: biochemical; conditions: purified recombinant enzyme, poly(rA)/oligo(dT)16 template-primer, 5 nM HIV-1 RT, 37° C. 30 min; TABLE 3
Description: HIV-1 RT assay was carried out in 96-well Millipore filtermat NOB50 plates using purified recombinant enzyme and a poly(rA)/oligo(dT)16 template-primer in a total volume of 50 μL. The assay constituents were 50 mM Tris/HCl, 50 mM NaCl, 1 mM EDTA, 6 mM MgCl2, 5 μM dTTP, 0.1 μCi [^3H] dTTP, 5 μg/ml poly (rA) pre annealed to 2.5 μg/ml oligo (dT)16 and a range of inhibitor concentrations in a final concentration of 10% DMSO. Reactions were initiated by adding 5 nM HIV-1 RT and after incubation at 37° C. for 30 min, they were stopped by the addition of 50 μl ice cold 20% TCA and allowed to precipitate at 4° C. for 30 min. The precipitates were collected by applying vacuum to the plate and sequentially washing with 2×200 μl of 10% TCA and 2×200 μl 70% ethanol. Finally the plates were dried and radioactivity counted in a Wallac Microbeta 1450 after the addition of 15 μL scintillation fluid per well. IC50's (TABLE 3) were calculated by plotting % inhibition versus log10 inhibitor concentrations.

HIV-1 RT [2] = molecular target: T1, HIV-1 RT; assay: Heteropolymer HIV Reverse Transcriptase Assay: Inhibitor IC50 Determination; assay type: biochemical; conditions: purified recombinant enzyme, poly(rA)/oligo(dT)16 template-primer, 4 nM HIV-1 RT, 37° C. 30 min; TABLE 2
Description: HIV-1 RT assay was carried out in 96-well Millipore MultiScreen MADVNOB50 plates using purified recombinant enzyme and a poly(rA)/oligo(dT)16 template-primer in a total volume of 50 μL. The assay constituents were 50 mM Tris/HCl, 50 mM NaCl, 1 mM EDTA, 6 mM MgCl2, 5 μM dTTP, 0.15 μCi [^3H] dTTP, 5 μg/ml poly (rA) pre annealed to 2.5 μg/ml oligo (dT)16 and a range of inhibitor concentrations in a final concentration of 10% DMSO. Reactions were initiated by adding 4 nM HIV-1 RT and after incubation at 37° C. for 30 min, they were stopped by the addition of 50 μl ice cold 20% TCA and allowed to precipitate at 4° C. for 30 min. The precipitates were collected by applying vacuum to the plate and sequentially washing with 3×200 μl of 10% TCA and 2×200 μl 70% ethanol. Finally, the plates were dried and radioactivity counted in a Packard TopCounter after the addition of 25 μl scintillation fluid per well. IC50's were calculated by plotting % inhibition versus log10 inhibitor concentrations.

Structure (SMILES) | melting point [°C] | IC50 (HIV-1 RT [1]) [nM] | IC50 (HIV-1 RT [2]) [nM]
N#Cc1cc(Cl)cc(Oc2c(Cl)ccc(Cc3n[nH]c4ccccc34)c2F)c1 [Compound I-3, 3-Chloro-5-[6-chloro-2-fluoro-3-(1H-indazol-3-ylmethyl)-phenoxy]-benzonitrile] | 163.3 to 163.7 | 52 | 
COc1ccc2c(Cc3ccc(Br)c(Oc4cc(Cl)cc(C#N)c4)c3F)n[nH]c2n1 | 223.8 to 225 |  | 
N#Cc1cc(Oc2c(Br)ccc(Cc3n[nH]c4cnccc34)c2F)cc(C(F)F)c1 | 166 to 166.9 |  | 
CN1CCc2c(Cc3ccc(Br)c(Oc4cc(Cl)cc(C#N)c4)c3F)n[nH]c2C1=O | 235.5 to 237.1 |  | 
N#Cc1cc(Cl)cc(Oc2c(Cl)ccc(Cc3n[nH]c4nnccc34)c2F)c1 [Compound I-11, 3-Chloro-5-[6-chloro-2-fluoro-3-(1H-pyrazolo[3,4-c]pyridazin-3-ylmethyl)-phenoxy]-benzonitrile] |  |  | 1
N#Cc1cc(Cl)cc(Oc2c(Br)ccc(Cc3n[nH]c4ncc(F)cc34)c2F)c1 | 206.5 to 209 |  | 
N#Cc1cc(Cl)cc(Oc2c(C3CC3)ccc(Cc3n[nH]c4ncccc34)c2F)c1 | 215 to 216.8 |  | 
N#Cc1cc(Cl)cc(Oc2c(Br)ccc(Cc3n[nH]c4c(C#N)cccc34)c2F)c1 | 250 to 251.1 |  | 
N#Cc1cc(Oc2c(Br)ccc(Cc3n[nH]c4ccccc34)c2F)cc(C(F)F)c1 [Compound I-6, 3-[6-Bromo-2-fluoro-3-(1H-indazol-3-ylmethyl)-phenoxy]-5-difluoromethyl-benzonitrile] |  |  | 11.8
N#Cc1cc(Cl)cc(Oc2c(Br)ccc(Cc3n[nH]c4nc(Cl)ncc34)c2F)c1 [Compound I-13, 3-[6-Bromo-3-(6-chloro-1H-pyrazolo[3,4-d]pyrimidin-3-ylmethyl)-2-fluoro-phenoxy]-5-chloro-benzonitrile] | 216 to 217.9 |  | 8.6
Cn1nc(Cc2ccc(Br)c(Oc3cc(Cl)cc(C#N)c3)c2F)c2cccnc21 | 138.6 to 142.6 |  | 
N#Cc1cc(Cl)cc(Oc2c(Br)ccc(Cc3n[nH]c4cnccc34)c2F)c1 | 182 to 186.9 |  | 
N#Cc1cc(Oc2c(Br)ccc(Cc3n[nH]c4ncccc34)c2F)cc(C(F)F)c1 | 192 to 194.4 |  | 
Cn1c(=O)ccc2c(Cc3ccc(Br)c(Oc4cc(Cl)cc(C#N)c4)c3F)n[nH]c21 [Compound I-48, 3-[6-Bromo-2-fluoro-3-(7-methyl-6-oxo-6,7-dihydro-1H-pyrazolo[3,4-b]pyridin-3-ylmethyl)-phenoxy]-5-chloro-benzonitrile, TFA salt] |  |  | 0.9
N#Cc1cc(C#N)cc(Oc2c(Br)ccc(Cc3n[nH]c4ncccc34)c2F)c1 [Compound I-16, 5-[6-Bromo-2-fluoro-3-(1H-pyrazolo[3,4-b]pyridin-3-ylmethyl)-phenoxy]-isophthalonitrile] | 230 to 232.9 |  | 3.3
N#Cc1cc(Oc2c(Br)ccc(Cc3cc(-c4ccccc4)[nH]n3)c2F)cc(C(F)F)c1 [Compound I-5, 3-[6-Bromo-2-fluoro-3-(5-phenyl-1H-pyrazol-3-ylmethyl)-phenoxy]-5-difluoromethyl-benzonitrile] | 78.3 to 90.1 | 55 | 
N#Cc1cc(Oc2c(Cl)ccc(Cc3n[nH]c4ncccc34)c2F)cc(C(F)F)c1 [Compound I-28, 3-[6-Chloro-2-fluoro-3-(1H-pyrazolo[3,4-b]pyridin-3-ylmethyl)-phenoxy]-5-difluoromethyl-benzonitrile] | 198 to 199 |  | 3.7
N#Cc1cc(Cl)cc(Oc2c(Br)ccc(Cc3n[nH]c4ncccc34)c2F)c1 [Compound I-7, 3-[6-Bromo-2-fluoro-3-(1H-pyrazolo[3,4-b]pyridin-3-ylmethyl)-phenoxy]-5-chloro-benzonitrile] | 242 to 243 |  | 7.6

Second part, led by results:

melting point [°C] | Structure (SMILES) | IC50 (HIV-1 RT [1]) [nM] | IC50 (HIV-1 RT [2]) [nM]
221 to 223.6 | N#Cc1cc(C#N)cc(Oc2c(C3CC3)ccc(Cc3n[nH]c4ncccc34)c2F)c1 |  | 
210 to 215.5 | N#Cc1cc(Cl)cc(Oc2c(Cl)ccc(Cc3n[nH]c4ncccc34)c2F)c1 |  | 
212.5 to 214.4 | Cc1ccc(Cc2n[nH]c3ncccc23)c(F)c1Oc1cc(C#N)cc(C(F)F)c1 |  | 
148 to 150.1 | N#Cc1cc(Cl)cc(Oc2c(Cl)ccc(Cc3cc(-c4ccccc4)[nH]n3)c2F)c1 |  | 
197.9 to 201.9 | COc1ccc(Cc2n[nH]c3ncccc23)c(F)c1Oc1cc(C#N)cc(C(F)F)c1 |  | 
215 to 218.8 | Cc1ccc(Cc2n[nH]c3ncccc23)c(F)c1Oc1cc(Cl)cc(C#N)c1 |  | 
214.2 to 216 | N#Cc1cc(Cl)cc(Oc2c(Br)ccc(Cc3n[nH]c4c([N+](=O)[O-])cccc34)c2F)c1 |  | 
212.3 to 214 | N#Cc1cc(Cl)cc(Oc2c(Br)ccc(Cc3n[nH]c4nc(Cl)ccc34)c2F)c1 |  | 
205 to 206.9 | CCc1ccc(Cc2n[nH]c3ncccc23)c(F)c1Oc1cc(Cl)cc(C#N)c1 |  | 
179.9 to 181.3 | N#Cc1cc(Cl)cc(Oc2c(Br)ccc(Cc3n[nH]c4c(N)cccc34)c2F)c1 |  | 
177.5 to 178.2 | N#Cc1cc(Cl)cc(Oc2c(C(F)F)ccc(Cc3n[nH]c4nnccc34)c2F)c1 |  | 
237.6 to 240.8 | N#Cc1cc(Cl)cc(Oc2c(Br)ccc(Cc3n[nH]c4nnccc34)c2F)c1 |  | 
234 to 236 | CS(=O)(=O)Nc1cccc2c(Cc3ccc(Br)c(Oc4cc(Cl)cc(C#N)c4)c3F)n[nH]c12 |  | 
222.8 to 224.7 | N#Cc1cc(C#N)cc(Oc2c(Cl)ccc(Cc3n[nH]c4nnccc34)c2F)c1 |  | 
239.5 to 240.7 | CS(=O)(=O)c1ccc(Cc2n[nH]c3nnccc23)c(F)c1Oc1cc(Cl)cc(C#N)c1 |  | 
216 to 218.5 | N#Cc1cc(Cl)cc(Oc2c(Br)ccc(Cc3n[nH]c4ccncc34)c2F)c1 |  | 
200 to 202.9 | Cc1cc(C#N)cc(Oc2c(Cl)ccc(Cc3n[nH]c4nnccc34)c2F)c1 |  | 
204 to 205 | N#Cc1cc(Cl)cc(Oc2c(Br)ccc(Cc3n[nH]c4nccnc34)c2F)c1 |  | 
215 to 218 | N#Cc1cc(Cl)cc(Oc2c(Br)ccc(Cc3n[nH]c4ncncc34)c2F)c1 |  | 
